Results as given in patent publication US7285567B2, “Halogenated benzamide derivatives” (Romark Laboratories, L.C., priority 2005, dated 2007).
Read-outs that look alike come from different tables or passages of the source.

How the values were obtained:
Trichomonas vaginalis = experiment: Antiparasite test by conventional means; assay type: cell-based; settings: at concentrations of at least 50 μg/mL
Protocol: The above identified compounds according to Formula (IV) were tested by conventional means against Trichomis vaginalis, Giardia Intestinalis, and Trypanosoma brucei.

Hepatitis B Virus (HBV) = experiment: HBV replication in 2.2.15 cell culture, 9-day assay; assay type: cell-based; settings: for EC50 / EC90: Hepatitis B virus, 2.2.15 cells
Protocol: (§1) Anti-Hepatitis B Virus (HBV) analyses and an assessment of cytotoxicity were performed in a 9-day assay in the chronically-producing HBV human hepatoblastoma cell line, 2.2.15, as previously described (Korba, B. E. & Gerin, J. L. Use of a standardized cell culture assay to assess activities of nucleosides analogues against hepatitis B virus replication. Antivir. Res. 19, 55-70 (1992)).
(§2) Values presented (±standard deviations [S.D.]) were calculated by linear regression analysis using data combined from all treated cultures. S.D. were calculated using the standard error of regression generated from linear regression analyses (QuattroPro™). EC50, EC90=drug concentration at which a 2-fold, or a 10-fold depression of HBV DNA (relative to the average levels in untreated cultures), respectively, was observed, CC50=drug concentration at which a 2-fold depression of neutral red dye uptake (relative to the average levels in untreated cultures) was observed, The EC90 values were used for the calculation of the Selectivity Indexes [S.I.] since at least a 3-fold depression of HBV levels is typically required to achieve statistical significance in this assay system. HBV R.I.=intracellular HBV DNA replication intermediate.

[1] = Cytotoxicity in AVA5 cells (neutral red dye uptake); assay type: cell-based, human; settings: human, 2-fold depression of neutral red dye uptake
Protocol: Anti-Hepatitis C Virus (HCV) analyses and an assessment of cytotoxicity were performed in a 3-day assay in the HCV replicon-containing human hepatoblastoma cell line, AVA5 (Okuse, C., Rinaudo, J. A., Farrar, K., Wells, F. & Korba, B. E. Enhancement of antiviral activity against hepatitis C virus in vitro by interferon combination therapy. Antivir. Res. 65, 23-34 (2005)) as previously described (Blight, K. J., Kolykhalov, A. A. & Rice, C. M. Efficient initiation of HCV RNA replication in cell culture. Science 290, 1972-1974 (2000)).
Values presented (±standard deviations [S.D.]) were calculated by linear regression analysis using data combined from all treated cultures. S.D. were calculated using the standard error of regression generated from the linear regression analyses (QuattroPro™). EC50, EC90=drug concentration at which a 2-fold, or a 10-fold depression of HCV RNA (relative to the average levels in untreated cultures), respectively, was observed. CC50=drug concentration at which a 2-fold depression of neutral red dye uptake was observed relative to the average levels in untreated cultures. Selectivity index=CC50/EC50.

[2] = tested on: Coronavirus: canine coronavirus strain S-378; experiment: microbe, parasite or virus in culture; assay type: cell-based; settings: canine coronavirus strain S-378, A72 cell culture
Prevotella/Porphyromonas = experiment: CLSI agar dilution MIC, anaerobic clinical isolates; assay type: cell-based; settings: Prev/Porphy (26 isolates), 48 h
Protocol: (§3) Methods. Recent clinical anaerobic isolates (2000 to date) comprised 40 B. fragilis group, 26 Prevotella/Porphyromonas, 28 fusobacteria, 16 anaerobic Gram positive cocci, 14 anaerobic Gram-positive non-sporeforming rods and 18 clostridia. CLSI agar dilution MIC methodology with enriched Brucella blood agar and inocula of 1×10^5 cfu/spot was used. Plates were incubated in an anaerobic glove box at 35° C. for 48 h. Results.

B. fragilis group = experiment: as above; assay type: cell-based; settings: Bacteroides fragilis, B. fragilis gp (40 isolates), 48 h, 35° C.
Protocol: as §3

fusobacteria = experiment: as above; assay type: cell-based; settings: Fusobacteria (28 isolates), 48 h
Protocol: as §3

[3] = Cytotoxicity in 2.2.15 cells (neutral red dye uptake); assay type: cell-based; settings: human, 2-fold depression of neutral red dye uptake
Protocol: as §1, §2

[4] = tested on: Rotavirus: Simian Rotavirus SA-11; experiment: microbe, parasite or virus in culture; assay type: cell-based; settings: Simian rotavirus SA-11, MA104 cell culture
Influenza A: PR8 strain = experiment: microbe, parasite or virus in culture; assay type: cell-based, Influenza A virus
[5] = tested on: Rhabdovirus: Vesicular stomatitis virus; experiment: microbe, parasite or virus in culture; assay type: cell-based
[6] = tested on: Human Rhinovirus Type 39 (HRV-39); experiment: Multiple cycle CPE inhibition assay on OH-I Hela cell monolayers; assay type: cell-based; settings: Rhinovirus A, HRV39, HRV-39, OH-Hela, 2% McCoys + Hepes Buffer
Protocol: (§4) EC50 (μg/mL) values for 2-(acetolyloxy)-3-methyl-N-(5-bromo-2-thiazolyl)benzamide (RM4803), 2-(acetolyloxy)-3-methyl-N-(5-chloro-2-thiazolyl)benzamide (RM4804), and 2-(acetolyloxy)-3-methoxy-N-(5-bromo-2-thiazolyl)benzamide (RM4806), on Human Rhinovirus Type 39 (HRV-39), and H3N2 influenza virus, type A, using a multiple cycle CPE inhibition assay on OH-I Hela and Madin Darby Canine Kidney (MDCK) cell monolayers, respectively, were measured by microscopic and spectrophotometric methods. Pirodavir and Oseltamivir were included as positive controls.

[7] = tested on: H3N2 influenza virus, type A; experiment: Multiple cycle CPE inhibition assay on MDCK cell monolayers; assay type: cell-based; settings: 0% EMEM + Hepes + Trypsin
Protocol: as §4

[8] = tested on: Paramyxovirus: Sendai virus; experiment: microbe, parasite or virus in culture; assay type: cell-based; settings: Sendai virus, 37RC cell culture (Table 1)
[9] = tested on: anaerobic Gram-positive non-sporeforming rods; experiment: CLSI agar dilution MIC, anaerobic clinical isolates; assay type: cell-based; settings: Gram + rods (14 isolates), 48 h
[10] = tested on: anaerobic Gram positive cocci; experiment: as above; assay type: cell-based; settings: Gram + cocci (16 isolates), 48 h
[11] = tested on: Herpes Simplex type 1: strain F1; experiment: microbe, parasite or virus in culture; assay type: cell-based, Herpes Simplex virus type 1; settings: Herpes Simplex type 1 strain F1, HEp-2 cell culture
[12] = microscopic reading, read-out: EC50, Microscopic
[13] = spectrophotometric reading, read-out: EC50, Spectrophotometer

CC(=O)Oc1c(C)cccc1C(=O)Nc1ncc(Br)s1 [RM-4803, 2-(acetolyloxy)-3-methyl-N-(5-bromo-2-thiazolyl)benzamide]
antiparasite activity (Trichomonas vaginalis): failed to exhibit antiparasite activitity
EC50 (Hepatitis B Virus (HBV); 2-fold depression of HBV DNA, read-out: Extracellular Virion DNA EC50): 6.3 ± 0.7 µM
EC90 (Hepatitis B Virus (HBV); 10-fold depression of HBV DNA, read-out: Extracellular Virion DNA EC90): 15 ± 1.1 µM
EC50 (Hepatitis B Virus (HBV); intracellular HBV DNA replication intermediate, 2-fold depression, read-out: Intracellular HBV R.I. EC50): 12 ± 1.5 µM
EC90 (Hepatitis B Virus (HBV); intracellular HBV DNA replication intermediate, 10-fold depression, read-out: Intracellular HBV R.I. EC90): 50 ± 5.5 µM
Selectivity Index R.I. (Hepatitis B Virus (HBV); calculated with EC90 values (CC50/EC90), HBV R.I.): >20
Selectivity Index Virion (Hepatitis B Virus (HBV); calculated with EC90 values (CC50/EC90), virion DNA): >67
CC50 at 3 day [1]: 282 ± 21 µM
EC50 ([2]; Alphacoronavirus 1, A-72): 4.2 µM
SI (selectivity index) = CC50/EC50 ([2]; CC50 by MTT): 13
MIC50 (Prevotella/Porphyromonas): > 32 µg/mL
MIC90 (Prevotella/Porphyromonas): > 32 µg/mL
MIC50 (B. fragilis group): > 32 µg/mL
MIC90 (B. fragilis group): > 32 µg/mL
MIC50 (fusobacteria): > 32 µg/mL
MIC90 (fusobacteria): > 32 µg/mL
CC50 at 9 day [3]: > 1000 µM
EC50 ([4]; Rotavirus A): 0.06 µM
SI (selectivity index) = CC50/EC50 ([4]; CC50 by MTT): > 2500
SI (selectivity index) = CC50/EC50 (Influenza A: PR8 strain; Influenza A PR8 strain, MDCK cell culture, CC50 by MTT): > 50
EC50 (Influenza A: PR8 strain; Influenza A virus, PR8, MDCK): 2.8 µM
EC50 ([5]; MA104): 2.8 µM
SI (selectivity index) = CC50/EC50 ([5]; MA104 cell culture, CC50 by MTT): > 50
EC50 [6, 12]: 0.06 µg/mL
EC50 [6, 13]: 0.03 µg/mL
EC50 [7, 12]: 0.45 µg/mL
EC50 [7, 13]: 0.18 µg/mL
EC50 ([8]; Respirovirus muris): 1.1 µM
SI (selectivity index) = CC50/EC50 ([8]; CC50 by MTT): > 125
MIC50 [9]: > 32 µg/mL
MIC90 [9]: > 32 µg/mL
MIC50 [10]: > 32 µg/mL
MIC90 [10]: > 32 µg/mL
SI (selectivity index) = CC50/EC50 ([11]; CC50 by MTT): 3
EC50 ([11]; Human alphaherpesvirus 1): 5.6 µM
